Measurements: patent US20090221829A1 (priority 2005, published 2009)

The compounds below were run on Candida albicans(KCTC 1940), Aspergillus niger (ATCC 9642) and Saccharomyces cerevisiae (assay: Relative antifungal activity by agar dilution method (vs Miconazole)). Conditions: agar dilution method; fungicidal concentration relative to control drug Miconazole (=4).
Type: cell-based
Text: Novel compounds represented by the above chemical formula (I), and the relative activities in accordance with the agar dilution method in Sabouraud dextrose agar media, Czapek agar media and Yeast Extract-Peptone-Dextrose agar media for Candida albicans(KCTC 1940), Aspergillus niger (ATCC 9642) and Saccharomyces cerevisiae are described respectively in following Table 1.
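Further: scores 5 to 7 mean a lower fungicidal concentration than Miconazole so higher is more potent.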

Row | SMILES | Relative Activity
1 | CCCCCC1=[N+](Cc2ccc(F)c(F)c2)CCc2cc(OC)c(OC)cc21.[Cl-] [Compound No. 41, 1-n-pentyl-2-(3,4-difluorophenyl)methyl-3,4-dihydro-6,7-dimethoxyisoquinolinium chloride] | 6
2 | CCCCCCC1=[N+](Cc2ccc(F)c(F)c2)CCc2cc(OC)c(OC)cc21.[Cl-] [Compound No. 42, 1-n-hexyl-2-(3,4-difluorophenyl)methyl-3,4-dihydro-6,7-dimethoxyisoquinolinium chloride] | 4
3 | CCCCCCCC1=[N+](Cc2ccc(F)c(F)c2)CCc2cc(OC)c(OC)cc21.[Cl-] [Compound No. 43, 1-n-heptyl-2-(3,4-difluorophenyl)methyl-3,4-dihydro-6,7-dimethoxyisoquinolinium chloride] | 3
4 | CCCCCCCCCCCC1=[N+](Cc2ccc(F)c(F)c2)CCc2cc(OC)c(OC)cc21.[Cl-] [Compound No. 44, 1-n-undecyl-2-(3,4-difluorophenyl)methyl-3,4-dihydro-6,7-dimethoxyisoquinolinium chloride] | 1
5 | CCCCCCC1=[N+](Cc2ccc(C(F)(F)F)cc2)CCc2cc(OC)c(OC)cc21.[Cl-] [Compound No. 45, 1-n-hexyl-2-(4-trifluoromethylphenyl)methyl-3,4-dihydro-6,7-dimethoxyisoquinolinium chloride] | 4
6 | CCCCCCCCCCCCCCCC1=[N+](Cc2ccc(F)c(F)c2)CCc2cc(OC)c(OC)cc21.[Cl-] [Compound No. 46, 1-n-pentadecyl-2-(3,4-difluorophenyl)methyl-3,4-dihydro-6,7-dimethoxyisoquinolinium chloride] | 1
7 | COc1cc2c(cc1OC)C(c1ccccc1F)=[N+](Cc1ccc(F)c(F)c1)CC2.[Cl-] [Compound No. 47, 1-(2-fluorophenyl)-2-(3,4-difluorophenyl)methyl-3,4-dihydro-6,7-dimethoxyisoquinolinium chloride] | 6
8 | COc1cc2c(cc1OC)C(C)=[N+](Cc1ccccc1Cl)CC2.[Cl-] [Compound No. 49, 1-methyl-2-(2-chlorophenyl)methyl-3,4-dihydro-6,7-dimethoxyisoquinolinium chloride] | 6
9 | CCCCCC1=[N+](Cc2ccccc2Cl)CCc2cc(OC)c(OC)cc21.[Cl-] [Compound No. 50, 1-n-pentyl-2-(2-chlorophenyl)methyl-3,4-dihydro-6,7-dimethoxyisoquinolinium chloride] | 6
10 | CCCCCCC1=[N+](Cc2ccccc2Cl)CCc2cc(OC)c(OC)cc21.[Cl-] [Compound No. 51, 1-n-hexyl-2-(2-chlorophenyl)methyl-3,4-dihydro-6,7-dimethoxyisoquinolinium chloride] | 4
11 | CCCCCCCC1=[N+](Cc2ccccc2Cl)CCc2cc(OC)c(OC)cc21.[Cl-] [Compound No. 52, 1-n-heptyl-2-(2-chlorophenyl)methyl-3,4-dihydro-6,7-dimethoxyisoquinolinium chloride] | 3
12 | CCCCCCCCCCCC1=[N+](Cc2ccccc2Cl)CCc2cc(OC)c(OC)cc21.[Cl-] [Compound No. 53, 1-n-undecyl-2-(2-chlorophenyl)methyl-3,4-dihydro-6,7-dimethoxyisoquinolinium chloride] | 2
13 | CCCCCCCCCCCCCCCC1=[N+](Cc2ccccc2Cl)CCc2cc(OC)c(OC)cc21.[Cl-] [Compound No. 54, 1-n-pentadecyl-2-(2-chlorophenyl)methyl-3,4-dihydro-6,7-dimethoxyisoquinolinium chloride] | 1
14 | COc1cc2c(cc1OC)C(C)=[N+](Cc1c(F)cccc1F)CC2.[Cl-] [Compound No. 56, 1-methyl-2-(2,6-difluorophenyl)methyl-3,4-dihydro-6,7-dimethoxyisoquinolinium chloride] | 6
